The source of these data is patent US20050107423A1, “Quinolone antibacterial agents” (priority 2003, published 2005).

Converted amounts (≈) assume the structure as drawn.

Assay in all cases: Antibacterial assay, microtitration MIC (Test A)
Type in all cases: cell-based

For test [1], the system named is E. coli EC-2549. The following applies: Escherichia coli, EC2549, Gram Negative Bacteria; strain EC-2549; read-out: Minimum Inhibitory Concentrations E. coli EC-2549. The procedure:
(§1) The compounds of the present invention were tested against an assortment of Gram-negative and Gram-positive organisms using standard microtitration techniques (Cohen et. al., Antimicrob., 1985;28:766; Heifetz, et. al., Antimicrob., 1974;6:124). The results of the evaluation are shown in Tables 1A and B, wherein “-” means no data.

The test system of test [2] is H. influenzae HI-3542. As to conditions: Haemophilus influenzae, HI3542, Gram Negative Bacteria; strain HI-3542; read-out: Minimum Inhibitory Concentrations H. influenzae HI-3542. The procedure:
as §1

Test [3] has as its system M. catarrhalis BC-3531. As to conditions: strain BC-3531; for MIC: Moraxella catarrhalis, BC3531, Gram Negative Bacteria, read-out: Minimum Inhibitory Concentrations M. catarrhalis BC-3531. The procedure: as §1
The subject of test [4] is E. faecalis MGH-2. As to conditions: strain MGH-2; for Minimum Inhibitory Concentrations E. faecalis MGH-2: Gram Positive Bacteria; for MIC: Enterococcus faecalis, MGH2, Gram Positive Bacteria, read-out: Minimum Inhibitory Concentrations E. faecalis MGH-2. The method, then:
as §1

In test [5] the test system is S pyogenes C203. The following applies: Gram Positive Bacteria, strain C203; for MIC: read-out: Minimum Inhibitory Concentrations S pyogenes C203. The procedure: as §1
For test [6], the system named is S. pneumo SV-1. As to conditions: Gram Positive Bacteria, strain SV-1; for MIC: read-out: Minimum Inhibitory Concentrations S. pneumo SV-1. The method, then:
as §1

For the compound `Nc1nc(-n2cc(C(=O)O)c(=O)c3cc(F)c(N4C[C@@H](O)[C@@H](O)C4)nc32)c(F)cc1F` [drawing 380], the MIC in test [1] turned out to be 0.25 µg/mL (≈ 0.572 µM); in test [2], 0.008 µg/mL (≈ 0.0183 µM); in test [3] it was 0.125 µg/mL (≈ 0.286 µM).

As for `O=C(O)c1cn(C2CC2)c2nc(N3CCC(C(O)C(F)(F)F)C3)c(F)cc2c1=O` (centres unmarked) [drawing 334], the results for the MIC in test [1], in test [2] and in test [3] were 0.125 µg/mL (≈ 0.301 µM), 0.016 µg/mL (≈ 0.0385 µM) and 0.016 µg/mL (≈ 0.0385 µM), respectively.

For the compound `Cc1c(N2CC(C(C)O)C(C)(C)C2)c(F)cc2c(=O)c(C(=O)O)cn(C3CC3)c12` (centres unmarked) [drawing 423], the MIC was found to be 0.25 µg/mL (≈ 0.621 µM) in test [1], 0.06 µg/mL (≈ 0.149 µM) in test [2] and 0.015 µg/mL (≈ 0.0373 µM) in test [3].

For `COc1c(N2CCC(C(O)C(F)(F)F)C2)c(F)cc2c(=O)c(C(=O)O)cn(C3CC3)c12` (centres unmarked) [drawing 331], the MIC in test [1] amounted to 0.125 µg/mL (≈ 0.281 µM); in test [2], 0.015 µg/mL (≈ 0.0338 µM); in test [3], 0.008 µg/mL (≈ 0.018 µM).

Turning to `Cc1c(N2C[C@@H](CO)[C@@H](CO)C2)c(F)cc2c(=O)c(C(=O)O)cn(C3CC3)c12` [drawing 386], the MIC is 0.06 µg/mL (≈ 0.154 µM) in test [1], 0.001 µg/mL (≈ 0.00256 µM) in test [2] and 0.015 µg/mL (≈ 0.0384 µM) in test [3].

As for `Cc1c(N2CCC(C(C)O)C2)c(F)cc2c(=O)c(C(=O)O)cn(C3CC3)c12` (centres unmarked) [drawing 315], the MIC in test [1] worked out at 0.06 µg/mL (≈ 0.16 µM); in test [2], 0.002 µg/mL (≈ 0.00534 µM). Also, in test [3] (Gram Negative Bacteria), the “Minimum Inhibitory Concentrations M. catarrhalis BC-3531” value stood at 0.002 µg/mL.

Take `COC[C@H]1CN(c2c(F)cc3c(=O)c(C(=O)O)cn(C4CC4)c3c2C)C[C@H]1CO` [drawing 387]: the MIC is 0.06 µg/mL (≈ 0.148 µM) in test [1], 0.008 µg/mL (≈ 0.0198 µM) in test [2] and 0.015 µg/mL (≈ 0.0371 µM) in test [3].

For `COc1c(N2C[C@@H](CO)[C@@H](CO)C2)c(F)cc2c(=O)c(C(=O)O)cn(C3CC3)c12` [drawing 384], the MIC in test [1] amounted to 0.125 µg/mL (≈ 0.308 µM); in test [2] it was 0.004 µg/mL (≈ 0.00984 µM); in test [3] it was 0.015 µg/mL (≈ 0.0369 µM).

On to `Cc1c(N2CC(CO)C3(CC3)C2)c(F)cc2c(=O)c(C(=O)O)cn(C3CC3)c12` (centres unmarked) [drawing 419], for which the MIC in test [1] turned out to be 0.125 µg/mL (≈ 0.323 µM); in test [2], 0.015 µg/mL (≈ 0.0388 µM); in test [3], 0.008 µg/mL (≈ 0.0207 µM).

Take `Cc1c(N2CCC(CCO)C2)c(F)cc2c(=O)c(C(=O)O)cn(C3CC3)c12` (centres unmarked) [drawing 308]: the MIC in test [1] was 0.06 µg/mL (≈ 0.16 µM); in test [2], 0.03 µg/mL (≈ 0.0801 µM); in test [3], 0.015 µg/mL (≈ 0.0401 µM).

Take `COc1c(N2CCC(C(O)C3(CO)CC3)C2)c(F)cc2c(=O)c(C(=O)O)cn(C3CC3)c12` (centres unmarked) [drawing 320]: the MIC was 0.25 µg/mL (≈ 0.56 µM) in test [1] and 0.03 µg/mL (≈ 0.0672 µM) in test [2].

Consider `Cc1c(N2CCC(C(C)O)C2)c(F)cc2c(=O)c(C(=O)O)cn(C3CC3)c12` (centres unmarked) [drawing 346], for which the “Minimum Inhibitory Concentrations E. faecalis MGH-2” value in test [4] worked out at 0.06 µg/mL. The “Minimum Inhibitory Concentrations S pyogenes C203” value in test [5] turned out to be 0.06 µg/mL. The “Minimum Inhibitory Concentrations S. pneumo SV-1” value in test [6] was 0.06 µg/mL.

With `COc1c(N2CCC(C(O)C3(CO)CC3)C2)c(F)cc2c(=O)c(C(=O)O)cn(C3CC3)c12` (centres unmarked) [drawing 353], the MIC in test [4] was 0.25 µg/mL (≈ 0.56 µM); in test [5] it was 0.25 µg/mL (≈ 0.56 µM); in test [6], 0.125 µg/mL (≈ 0.28 µM).

In the case of `Cc1c(N2CCC(C(C)O)C2)c(F)cc2c(=O)c(C(=O)O)cn(C3CC3)c12` (centres unmarked) [drawing 344], the MIC was 0.06 µg/mL (≈ 0.16 µM) in test [4], 0.06 µg/mL (≈ 0.16 µM) in test [5] and 0.03 µg/mL (≈ 0.0801 µM) in test [6].

On to `Nc1nc(-n2cc(C(=O)O)c(=O)c3cc(F)c(N4CCC(C(O)C(F)(F)F)C4)c(Cl)c32)c(F)cc1F` (centres unmarked) [drawing 366], for which the MIC in test [4] is 0.5 µg/mL (≈ 0.931 µM); in test [5], 1 µg/mL (≈ 1.86 µM); in test [6], 0.5 µg/mL (≈ 0.931 µM).

For the compound `O=C(O)c1cn(C2CC2)c2nc(N3CCC(C(O)C(F)(F)F)C3)c(F)cc2c1=O` (centres unmarked) [drawing 367], the MIC in test [4] is 0.25 µg/mL (≈ 0.602 µM); in test [5] it was 1 µg/mL (≈ 2.41 µM); in test [6] it was 0.5 µg/mL (≈ 1.2 µM).

`COc1c(N2CC(CO)C3(CC3)C2)c(F)cc2c(=O)c(C(=O)O)cn(C3CC3)c12` (centres unmarked) [drawing 429]: the MIC is 0.06 µg/mL (≈ 0.149 µM) in test [4], 0.03 µg/mL (≈ 0.0745 µM) in test [5] and 0.03 µg/mL (≈ 0.0745 µM) in test [6].

For `COc1c(N2CCC(C(O)c3ccc(S(C)(=O)=O)o3)C2)c(F)cc2c(=O)c(C(=O)O)cn(C3CC3)c12` (centres unmarked) [drawing 348], the MIC in test [4], in test [5] and in test [6] was 0.5 µg/mL (≈ 0.961 µM) throughout.

For `Cc1c(N2CCC(C(O)C(F)(F)F)C2)c(F)cc2c(=O)c(C(=O)O)cn(C3CC3)c12` (centres unmarked) [drawing 364], the “Minimum Inhibitory Concentrations E. faecalis MGH-2” value in test [4] came out at 0.06 µg/mL. Moreover, the “Minimum Inhibitory Concentrations S pyogenes C203” value in test [5] was found to be 0.5 µg/mL. Moreover, the “Minimum Inhibitory Concentrations S. pneumo SV-1” value in test [6] is 0.125 µg/mL.
